How the values were obtained:
Argentine ants [1] = assay: Experiment #2: field attraction of ants from nest entrance and nearby trails to a pheromone-sprayed sand patch; format: in vivo, Linepithema humile
Protocol: Experiment #2 was conducted to observe would synthetic trail pheromone spray deposit attract the ants from a nest entrance and nearby trails? The study was conducted in the biological control grove at the University of California, Riverside, in Apr. 23, 2012. Nest entrances of Argentine ant colonies were located, which had active trails associated with them (one nest entrance per nest). By using the nest entrance and trails associated with the nest entrance, the pheromone assisted technique” was tested to see if it would attract ants from the nest entrance and nearby trails. For the pheromone treatment, two patches were made of sand on both sides of the nest entrance by evenly spreading 52.5 g of sand in a square (20 by 20 cm). The distance between the two patches was about 5 cm. The method and rate of application were identical with those of experiment #1.
Both sand patches were photographed at 1, 2, and 3 min after application of sprays. The study was replicated ten times by using a different nest entrance for each replicate. The numbers of ants on the 20 by 20-cm sand patches were counted at 1, 2, and 3 minute post-treatment using the photographs. The average values were compared between treatment and control with a paired T-test (one-sided, Analytical Software 2008). […]

Argentine ants [2] = assay: Experiment #3: laboratory colony mortality after spray applied away from the ant nest; format: in vivo, Linepithema humile; details: 0.01% fipronil and/or approx. 12 ng per cm^2 (Z)-9-hexadecenal; 3 ml on 491 cm^2 sand; colony about 731 ants; n=5-6
Protocol: Experiment #3 was conducted to observe would co-application of synthetic trail pheromone improve the efficacy of fipronil insecticide spray applied away from the ant nest? A laboratory study was conducted to determine if the efficacy of an insecticide spray (fipronil) can be improved by adding with a synthetic attractant trail pheromone. Argentine ants were collected from a citrus grove (biological control grove) on the University of California, Riverside, campus. Ant nests were excavated from the ground and transported to a laboratory chamber where they were extracted from the soil. Laboratory stock colonies were maintained in plastic boxes (26.5 by 30 by 10 cm) with the inner sides coated with Teflon™ Fluoropolymer resin, type 30, DuPont Polymers) to prevent ants from escaping. Each colony was provided with two or three artificial nests constructed from plaster-filled petri dishes (9 cm in diameter by 1.5 cm in depth) formed with a 5-cm-diameter by 1-cm-deep cylindrical area in the center of the dish to serve as a nesting space. […]
Three different spray preparations were tested: (a) pheromone+fipronil, (b) fipronil only, and (c) pheromone only. […] The dead ants were removed from the colony box and counted daily. […]

Argentine ants [3] = assay: Experiment #1: field attraction of ants from an existing trail to a pheromone-sprayed sand patch; format: in vivo, Linepithema humile
Protocol: Experiment #1 was conducted to observe would synthetic trail pheromone spray deposit attract the ants from an existing trail? The study was conducted in the biological control grove at the University of California, Riverside, in April 2012. The site supports a large population of Argentine ants, primarily because of the absence of chemical insecticide use and the existence of honeydew-producing insects in the citrus trees. Five different trails of Argentine ants were located, which were relatively straight and at least 30-cm long, and originating from different nests. By using these trails as “existing trails,” tests were performed to see if the “pheromone assisted technique” would attract ants from the existing trails. For the pheromone treatment, two patches of sand were made, one on each side of the existing trail by evenly spreading 52.5 grams (g) of sand in a square (20 by 20 cm). The distance between two patches was about 5 cm. One patch served as a treatment, and the other one served as a control. For the treatment, 1 mg of the synthetic pheromone compound [(Z)-9-hexadecenal] dissolved in 1 ml of ethyl alcohol was mixed with 500 ml of deionized water. […]
Each sand patch was treated with four sprays (each spray targeting 10 by 10 cm areas on one corner). […] The numbers of ants on the 20 by 20-cm sand patches were counted at 2 and 4 min post-treatment using the photographs. […]

[4] = tested on: Argentine ant populations; details: relatively large quantities, stand-alone treatment, field; cited from earlier work

SMILES	number of ants on treated sand patch relative to control patch (Argentine ants [1]; approx. 12 ng per cm^2, paired T-test P<0.001)	average number of ants on the 20 by 20-cm sand patch (mean±SEM) (Argentine ants [1]; approx. 12 ng per cm^2 on sand, counts at 1, 2 and 3 min post-treatment, 10 replicates, nest entrance and nearby trails)	cumulative number of dead ants at day 7 post-treatment (mean±SEM) (Argentine ants [2])	number of ants on treated sand patch relative to control patch (Argentine ants [3]; approx. 12 ng per cm^2, paired T-test P=0.033)	average number of ants on the 20 by 20-cm sand patch (mean±SEM) (Argentine ants [3]; approx. 12 ng per cm^2 on sand, counts at 2 and 4 min post-treatment averaged, 5 replicates, existing trail)	impact on Argentine ant populations [4]
CCCCCC/C=C\CCCCCCCC=O [(Z)-9-hexadecenal]	more than five times higher	18.1±3.0	65.8±11.0	more than two times higher	10.4±4.0	negligible impact
N#Cc1nn(-c2c(Cl)cc(C(F)(F)F)cc2Cl)c(N)c1[S+]([O-])C(F)(F)F (stereo not shown) [fipronil only, fipronil]			291±27.1			

Source: US12171226B2, “Development of pheromone assisted techniques to improve efficacy of insecticide sprays targeting urban pest ant species” (The Regents of the University of California, priority 2012, dated 2024)
